Measurements as given in patent US20240018161A1, “MODULATORS OF CYSTIC FIBROSIS TRANSMEMBRANE CONDUCTANCE REGULATOR” (VERTEX PHARMACEUTICALS INCORPORATED, priority 2020, published 2024).
Where two headings read alike, the source gives them in different places.

Columns and labels:
[1] = biological target: CFTR-mediated chloride transport in human intestinal epithelial enteroid cells (Homo sapiens, UniProt P13569); test: Membrane potential dye, Enteroid Assay A; format: cell-based; conditions: Enteroid Assay A; for EC50: read-out: Ent. A EC50
Outline: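 Membrane potential dye (20 μM methyl oxonol, with 30 μM CaCCinh-A01 and 30 μM Chicago Sky Blue) loaded 25 min at room temperature into ROCK-inhibitor-seeded human enteroid cells. Chloride-free stimulation buffer triggered transport, followed by 15 min fluorescence. % Activity relative to 3 μM/3 μM/300 nM triple-combination control.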

[2] = snar bond, 13-membered ring, NaH, DMF

CFTR-mediated chloride transport in human intestinal epithelial enteroid cells, sequence (P13569 with tags, fused parts or gaps DEL508-508): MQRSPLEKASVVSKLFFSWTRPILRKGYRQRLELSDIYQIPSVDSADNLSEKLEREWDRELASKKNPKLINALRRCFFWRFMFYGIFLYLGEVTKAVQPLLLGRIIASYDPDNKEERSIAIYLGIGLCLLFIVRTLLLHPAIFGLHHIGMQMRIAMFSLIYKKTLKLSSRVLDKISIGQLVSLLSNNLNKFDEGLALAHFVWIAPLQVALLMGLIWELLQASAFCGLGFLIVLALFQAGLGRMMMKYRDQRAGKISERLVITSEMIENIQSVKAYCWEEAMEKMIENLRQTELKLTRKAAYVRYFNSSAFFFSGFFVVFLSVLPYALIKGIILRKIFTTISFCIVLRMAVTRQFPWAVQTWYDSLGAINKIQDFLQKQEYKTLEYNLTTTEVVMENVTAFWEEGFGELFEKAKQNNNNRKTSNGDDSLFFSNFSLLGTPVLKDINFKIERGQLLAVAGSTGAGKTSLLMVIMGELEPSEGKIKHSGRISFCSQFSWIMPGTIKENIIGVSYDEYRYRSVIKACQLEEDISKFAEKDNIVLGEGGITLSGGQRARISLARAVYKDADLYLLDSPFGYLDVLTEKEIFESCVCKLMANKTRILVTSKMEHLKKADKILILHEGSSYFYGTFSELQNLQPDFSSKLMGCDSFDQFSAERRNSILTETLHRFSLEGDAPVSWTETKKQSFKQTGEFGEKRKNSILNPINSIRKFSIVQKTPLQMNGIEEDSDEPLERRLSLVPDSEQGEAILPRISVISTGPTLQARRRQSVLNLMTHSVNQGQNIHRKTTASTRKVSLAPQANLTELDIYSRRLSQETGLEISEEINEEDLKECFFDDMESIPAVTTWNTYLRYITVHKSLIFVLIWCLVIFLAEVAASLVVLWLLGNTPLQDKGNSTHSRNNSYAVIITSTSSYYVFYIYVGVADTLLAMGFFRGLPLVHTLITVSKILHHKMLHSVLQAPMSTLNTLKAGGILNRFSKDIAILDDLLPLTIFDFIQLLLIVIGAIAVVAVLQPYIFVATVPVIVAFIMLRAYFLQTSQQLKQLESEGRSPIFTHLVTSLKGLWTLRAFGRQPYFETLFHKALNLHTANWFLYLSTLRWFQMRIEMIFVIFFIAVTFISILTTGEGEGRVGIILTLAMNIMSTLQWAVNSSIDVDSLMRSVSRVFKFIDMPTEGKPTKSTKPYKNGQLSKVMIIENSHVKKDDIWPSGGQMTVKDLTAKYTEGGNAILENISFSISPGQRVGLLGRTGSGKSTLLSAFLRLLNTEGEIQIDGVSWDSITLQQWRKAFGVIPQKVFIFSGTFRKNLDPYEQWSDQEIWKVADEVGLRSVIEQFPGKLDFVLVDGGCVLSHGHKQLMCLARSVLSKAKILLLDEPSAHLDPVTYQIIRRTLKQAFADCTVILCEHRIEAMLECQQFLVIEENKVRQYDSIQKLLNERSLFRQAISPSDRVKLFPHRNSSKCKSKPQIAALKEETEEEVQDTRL

Row | Compound | Ent. A Max Activity (%) [1] | EC50 [1] [nM] | further results
1 | Cc1cccc(C)c1-c1cc2nc(n1)NS(=O)(=O)c1cccc(c1)C(=O)N1C[C@@H](CN(C(=O)OC(C)(C)C)C[C@@H]1C(C)C)O2 [Compound 132, tert-Butyl (16S,20S)-12-(2,6-dimethylphenyl)-2,8,8-trioxo-20-(propan-2-yl)-15-oxa-8λ^6-thia-1,9,11,18,22-pentaazatetracyclo[14.4.1.13,7.110,14]tricosa-3(23),4,6,10(22),11,13-hexaene-18-carboxylate] | ++ (++ is 30-60%) | < 1000 | ring closure, isolated yield ([2]; from Cc1cccc(C)c1-c1cc(Cl)nc(NS(=O)(=O)c2cccc(C(=O)N3C[C@H](O)CN(C(=O)OC(C)(C)C)C[C@@H]3C(C)C)c2)n1, 29.4 mM, 3.17 h): 46%
2 | Cc1cccc(C)c1-c1cc2nc(n1)NS(=O)(=O)c1cccc(c1)C(=O)N1C[C@H](CN(Cc3ccccc3)[C@H](CC(C)C)C1)O2 [Compound 111, (16S,19R)-18-Benzyl-12-(2,6-dimethylphenyl)-19-(2-methylpropyl)-15-oxa-8λ^6-thia-1,9,11,18,22-pentaazatetracyclo[14.4.1.13,7.110,14]tricosa-3(23),4,6,10(22),11,13-hexaene-2,8,8-trione] | + (+ is <30%) | – | ring closure, isolated yield ([2]; from Cc1cccc(C)c1-c1cc(Cl)nc(NS(=O)(=O)c2cccc(C(=O)N3C[C@@H](O)CN(Cc4ccccc4)[C@H](CC(C)C)C3)c2)n1, 28.6 mM, 4.6 h): 57%
3 | Cc1cccc(C)c1-c1cc2nc(n1)NS(=O)(=O)c1cccc(c1)C(=O)N1CCN(Cc3ccccc3)C[C@@H](O2)[C@H]1CC(C)C [Compound 84, (16R,21R)-18-Benzyl-12-(2,6-dimethylphenyl)-21-(2-methylpropyl)-15-oxa-8λ^6-thia-1,9,11,18,22-pentaazatetracyclo[14.4.1.13,7.110,14]tricosa-3(23),4,6,10,12,14(22)-hexaene-2,8,8-trione] | +++ (+++ is >600%) | < 1000 | ring closure, isolated yield ([2]; from Cc1cccc(C)c1-c1cc(Cl)nc(NS(=O)(=O)c2cccc(C(=O)N3CCN(Cc4ccccc4)C[C@H](O)[C@H]3CC(C)C)c2)n1, 16.6 mM, 25.0 °C, 72.0 h): 35%
4 | Cc1cccc(C)c1-c1cc2nc(n1)NS(=O)(=O)c1cccc(c1)C(=O)N1C[C@H](CN(C(=O)OC(C)(C)C)C[C@@H]1CC(C)C)O2 [Compound 100, tert-Butyl (16R,20S)-12-(2,6-dimethylphenyl)-20-(2-methylpropyl)-2,8,8-trioxo-15-oxa-8λ^6-thia-1,9,11,18,22-pentaazatetracyclo[14.4.1.13,7.110,14]tricosa-3(23),4,6,10(22),11,13-hexaene-18-carboxylate] | + (+ is <30%) | – | ring closure, isolated yield ([2]; from Cc1cccc(C)c1-c1cc(Cl)nc(NS(=O)(=O)c2cccc(C(=O)N3CC(O)CN(C(=O)OC(C)(C)C)C[C@@H]3CC(C)C)c2)n1, 31.2 mM, 25.0 °C, 3.08 h): 35%
5 | Cc1cccc(C)c1-c1cc2nc(n1)NS(=O)(=O)c1cccc(c1)C(=O)N1CCN(Cc3ccccc3)C[C@H](O2)[C@H]1CC(C)C [Compound 86, (16S,21R)-18-Benzyl-12-(2,6-dimethylphenyl)-21-(2-methylpropyl)-15-oxa-8λ^6-thia-1,9,11,18,22-pentaazatetracyclo[14.4.1.13,7.110,14]tricosa-3(23),4,6,10(22),11,13-hexaene-2,8,8-trione] | +++ (+++ is >600%) | < 1000 | ring closure, isolated yield ([2]; from Cc1cccc(C)c1-c1cc(Cl)nc(NS(=O)(=O)c2cccc(C(=O)N3CCN(Cc4ccccc4)C[C@@H](O)[C@H]3CC(C)C)c2)n1, 16.5 mM, 25.0 °C, 17.0 h): 5%
6 | Cc1cccc(C)c1-c1cc2nc(n1)NS(=O)(=O)c1cccc(c1)C(=O)N1C[C@H](CN(C(=O)OC(C)(C)C)C[C@H]1CC(C)C)O2 [Compound 106, tert-Butyl (16R,20R)-12-(2,6-dimethylphenyl)-20-(2-methylpropyl)-2,8,8-trioxo-15-oxa-8λ^6-thia-1,9,11,18,22-pentaazatetracyclo[14.4.1.13,7.110,14]tricosa-3(23),4,6,10(22),11,13-hexaene-18-carboxylate] | + (+ is <30%) | – | ring closure, isolated yield ([2]; from Cc1cccc(C)c1-c1cc(Cl)nc(NS(=O)(=O)c2cccc(C(=O)N3C[C@@H](O)CN(C(=O)OC(C)(C)C)C[C@H]3CC(C)C)c2)n1, 31.3 mM, 2.17 h): 45%
7 | Cc1cccc(C)c1-c1cc2nc(n1)NS(=O)(=O)c1cccc(c1)C(=O)N1C[C@@H](CN(Cc3ccccc3)[C@@H](CC(C)C)C1)O2 [Compound 109, (16R,19S)-18-Benzyl-12-(2,6-dimethylphenyl)-19-(2-methylpropyl)-15-oxa-8λ^6-thia-1,9,11,18,22-pentaazatetracyclo[14.4.1.13,7.110,14]tricosa-3(23),4,6,10(22),11,13-hexaene-2,8,8-trione] | +++ (+++ is >600%) | < 1000 | ring closure, isolated yield ([2]; from Cc1cccc(C)c1-c1cc(Cl)nc(NS(=O)(=O)c2cccc(C(=O)N3CC(O)CN(Cc4ccccc4)[C@@H](CC(C)C)C3)c2)n1, 30.0 mM, 0.0 °C, 7.0 h): 28%
8 | Cc1cccc(C)c1-c1cc2nc(n1)NS(=O)(=O)c1cccc(c1)C(=O)N1CCN(C(=O)OC(C)(C)C)[C@H](CC(C)C)[C@@H](C1)O2 [Compound 115, tert-Butyl (16R,17R)-12-(2,6-dimethylphenyl)-17-(2-methylpropyl)-2,8,8-trioxo-15-oxa-8λ^6-thia-1,9,11,18,22-pentaazatetracyclo[14.4.1.13,7.110,14]tricosa-3(23),4,6,10(22),11,13-hexaene-18-carboxylate] | ++ (++ is 30-60%) | < 1000 | ring closure, isolated yield ([2]; from Cc1cccc(C)c1-c1cc(Cl)nc(NS(=O)(=O)c2cccc(C(=O)N3CCN(C(=O)OC(C)(C)C)[C@H](CC(C)C)[C@H](O)C3)c2)n1, 31.6 mM, 1.67 h): 67%
9 | Cc1cccc(C)c1-c1cc2nc(n1)NS(=O)(=O)c1cccc(c1)C(=O)N1CC3CN(Cc4ccccc4)CC3(C1)O2 (stereo not drawn) [Compound 210, 20-Benzyl-5-(2,6-dimethylphenyl)-2-oxa-9λ^6-thia-6,8,16,20,24-pentaazapentacyclo[14.5.1.13,7.110,14.01,18]tetracosa-3(24),4,6,10,12,14(23)-hexaene-9,9,15-trione] | +++ (+++ is >600%) | < 1000 | ring closure, isolated yield ([2]; from Cc1cccc(C)c1-c1cc(Cl)nc(NS(=O)(=O)c2cccc(C(=O)N3CC4CN(Cc5ccccc5)CC4(O)C3)c2)n1, 33.1 mM, 25.0 °C, 24.0 h): 26%
10 | Cc1cccc(C)c1-c1cc2nc(n1)NS(=O)(=O)c1cccc(c1)C(=O)N1C[C@@H](CN(C(=O)OC(C)(C)C)C[C@H]1CC(C)C)O2 [Compound 102, tert-Butyl (16S,20R)-12-(2,6-dimethylphenyl)-20-(2-methylpropyl)-2,8,8-trioxo-15-oxa-8λ^6-thia-1,9,11,18,22-pentaazatetracyclo[14.4.1.13,7.110,14]tricosa-3(23),4,6,10(22),11,13-hexaene-18-carboxylate] | ++ (++ is 30-60%) | < 1000 | ring closure, isolated yield ([2]; from Cc1cccc(C)c1-c1cc(Cl)nc(NS(=O)(=O)c2cccc(C(=O)N3C[C@H](O)CN(C(=O)OC(C)(C)C)C[C@H]3CC(C)C)c2)n1, 30.8 mM, 4.17 h): 34%
11 | Cc1cccc(C)c1-c1cc2nc(n1)NS(=O)(=O)c1cccc(c1)C(=O)N1C[C@@H](CN(C(=O)OC(C)(C)C)C[C@@H]1CC(C)C)O2 [Compound 96, tert-Butyl (16S,20S)-12-(2,6-dimethylphenyl)-20-(2-methylpropyl)-2,8,8-trioxo-15-oxa-8λ^6-thia-1,9,11,18,22-pentaazatetracyclo[14.4.1.13,7.110,14]tricosa-3(23),4,6,10(22),11,13-hexaene-18-carboxylate] | ++ (++ is 30-60%) | < 1000 | ring closure, isolated yield ([2]; from Cc1cccc(C)c1-c1cc(Cl)nc(NS(=O)(=O)c2cccc(C(=O)N3C[C@H](O)CN(C(=O)OC(C)(C)C)C[C@@H]3CC(C)C)c2)n1, 29.2 mM, 25.0 °C, 5.08 h): 66%
12 | Cc1cccc(C)c1-c1cc2nc(n1)NS(=O)(=O)c1cccc(c1)C(=O)N1CCN(C(=O)OC(C)(C)C)[C@@H](CC(C)C)[C@@H](C1)O2 [Compound 116, tert-Butyl (16R,17S)-12-(2,6-dimethylphenyl)-17-(2-methylpropyl)-2,8,8-trioxo-15-oxa-8λ^6-thia-1,9,11,18,22-pentaazatetracyclo[14.4.1.13,7.110,14]tricosa-3(23),4,6,10(22),11,13-hexaene-18-carboxylate] | ++ (++ is 30-60%) | < 1000 | ring closure, isolated yield ([2]; from Cc1cccc(C)c1-c1cc(Cl)nc(NS(=O)(=O)c2cccc(C(=O)N3CCN(C(=O)OC(C)(C)C)[C@@H](CC(C)C)[C@H](O)C3)c2)n1, 31.0 mM, 5.17 h): 36%
13 | Cc1cccc(C)c1-c1cc2nc(n1)NS(=O)(=O)c1cccc(c1)C(=O)N1C[C@@H](CN(C(=O)OC(C)(C)C)C[C@H]1C(C)C)O2 [Compound 124, tert-Butyl (16S,20R)-12-(2,6-dimethylphenyl)-2,8,8-trioxo-20-(propan-2-yl)-15-oxa-8λ^6-thia-1,9,11,18,22-pentaazatetracyclo[14.4.1.13,7.110,14]tricosa-3(23),4,6,10(22),11,13-hexaene-18-carboxylate] | +++ (+++ is >600%) | < 1000 | ring closure, isolated yield ([2]; from Cc1cccc(C)c1-c1cc(Cl)nc(NS(=O)(=O)c2cccc(C(=O)N3C[C@H](O)CN(C(=O)OC(C)(C)C)C[C@H]3C(C)C)c2)n1, 30.5 mM, 3.17 h): 35%
